From publication PMC6954720, “Discovery of retinoic acid receptor agonists as proliferators of cardiac progenitor cells through a phenotypic screening approach” (Stem Cells Translational Medicine, 2019)
Entries after “also recorded” stand apart in the source; their conditions may differ. Read-outs that look alike come from different tables or passages of the source.

Key:
[1] = system: human iPS-derived cardiac progenitor cells (CPCs); test: CPC proliferation assay (nuclear count); assay type: cell-based
[2] = system: human iPS-derived cardiac progenitor cells (CPCs); test: CPC proliferation assay (nuclear count); assay type: cell-based; settings: primary screen, relative to basic FGF 100 ng/mL
Protocol: The CPC proliferation assay including image and data analysis was performed as previously described.14 Cardiac progenitor marker antibodies are listed in Table S3.
A library of 10 000 compounds was screened in singlicate at three concentrations (0.1, 1.0, and 10 μM) in the CPC proliferation assay. Each plate contained neutral controls, 0.1% DMSO and maximum controls, 100 ng/mL human basic fibroblast growth factor (FGF; Invitrogen, ThermoFisher Scientific, Waltham, Massachusetts). The data were analyzed using the Genedata Screener software (Genedata, Inc, Basel, Switzerland). […] Results were calculated using the following calculation method: compound % effect = 100 × [(X − min)/(max − min)], where X represents a normalized value for the compound based on the neutral and maximum controls.
The library was screened in three‐point concentration response (CR) at 0.1, 1.0, and 10 μM measuring proliferation of human induced pluripotent stem (iPS)‐derived CPCs with nuclear count, as measured by Hoechst staining, as the primary endpoint.

[3] = system: HuES6 hPSC-derived cardiac progenitors; test: HuES6-derived cardiac progenitors replated on day 5: cell number, RT-qPCR, immunocytochemistry; assay type: cell-based, human; settings: for effect on cell proliferation / cell numbers, in words: 1.0 μM, day-5 replated progenitors, 4 days of exposure
Protocol: Insulin and signaling agonists were omitted after 1 day. On days 2‐3, the nascent mesodermal cells were specified to the cardiac lineage using 0.2 μM C‐59 (R&D Tocris) supplementation. Culture medium was replaced daily.
Basal cardiac progenitor medium was composed of DMEM/F12 (ThermoFisher Scientific), insulin/transferrin/selenium supplement, 0.1% human serum albumin (Biological Industries Inc, Cromwell, Connecticut), 1× chemically defined lipids (ThermoFisher Scientific), and antibiotics. RAR agonists (1 μM) were added from the day of passaging the cells. Samples were harvested and monitored after 4 days of treatment.
Cell numbers per well were quantified following single‐cell dissociation with Accutase and using standard Neubauer counting chambers. RT‐qPCR and immunocytochemistry were performed according to standard procedures. RPL37A served as housekeeping gene for normalization.

[4] = system: human umbilical vein endothelial cells (HUVECs); design: method as in PMID 24424466; settings: cited from earlier work
[5] = system: human cardiac fibroblasts (CFs); test: CF proliferation assay (nuclear count)
Protocol: To ensure that these molecules were not general proliferators of all cardiac cells, they were also tested in a human CF proliferation assay31 using nuclear count as the endpoint.

murine CFs = system: murine CFs; design: method as in PMID 24424466; settings: cited from earlier work
[6] = biological target: T1, RARA (alpha) ligand binding domain (Homo sapiens, UniProt P10276); test: RAR LBD-SRC1-2 coactivator peptide recruitment assay, agonist format, RARA; assay type: biochemical
T1 sequence (P10276 183-417 limits assumed): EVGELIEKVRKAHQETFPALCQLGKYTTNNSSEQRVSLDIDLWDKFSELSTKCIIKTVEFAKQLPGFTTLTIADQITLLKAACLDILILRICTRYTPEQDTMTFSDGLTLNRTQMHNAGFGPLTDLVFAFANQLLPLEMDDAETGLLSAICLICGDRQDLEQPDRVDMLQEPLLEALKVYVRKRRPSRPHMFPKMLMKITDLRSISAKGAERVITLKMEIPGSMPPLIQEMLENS
Protocol: RAR ligand binding domain (LBD)‐SRC1‐2 coactivator peptide (NCOA1_677‐700 biotinylated) recruitment assays were established for the three RAR isotypes RARA (alpha), RARB (beta), and RARG (gamma) to determine relative potencies. […] A total of 0.4 μL of a fixed concentration range of test ligands dissolved in dimethyl sulphoxide (DMSO) was added to assay plates using an acoustic liquid dispenser. […] The raw data were transformed to % effect using the equation: compound % effect = 100 × [(X − min)/(max − min)], where X represents the effect in the presence of test compound and max and min are the effects in presence of the maximum and minimum controls, respectively.
The data were plotted to generate concentration‐response profiles and the concentration‐response curves were fit to the data using the four‐parameter logistic smart fit method in the Genedata Screener software (Genedata, Inc).

human aortic SMCs = system: human aortic SMCs; design: method as in PMID 24424466; settings: cited from earlier work

CC1=C(/C=C/C(C)=C/C=C/C(C)=C/C(=O)O)C(C)(C)CCC1 [ATRA, all‐trans retinoic acid]
EC50 ([1]; 10-point CR, variable between occasions, read-out: EC50 variation between occasions, lower end): 50 nM | EC50 ([1]; 10-point CR, variable between occasions, read-out: EC50 variation between occasions, upper end): > 10000 nM | EC50 ([1]; 10-point concentration response, read-out: EC50, CPC proliferation): 56 nM | EC50 ([1]; iPSC-derived CPC proliferation, 10-point concentration response, read-out: CPC pEC50 (converted)): 50.1 nM | % Effect-normalised cell count ([2]; Log Concentration M -5 (10 μM)): 59% | % Effect-normalised cell count ([2]; Log Concentration M -6 (1.0 μM)): 14% | % Effect-normalised cell count ([2]; Log Concentration M -7 (0.1 μM)): 14% | terminal cardiac differentiation, in words ([3]; 1 μM, day-5 replated cells, 4 days): did not acquire a beating phenotype; also recorded: pronounced inhibition of terminal cardiac differentiation | expression of cardiac progenitor markers vs untreated ([3]; 1 μM, day-5 replated cells, 4 days, with the exception of ISL1): enhanced the expression of cardiac progenitor markers | effect on cell proliferation / cell numbers, in words [3]: strong positive effects on cell proliferation | effect on cell proliferation / cell numbers, in words ([3]; listed as RA): increase in cell numbers | proliferation of HUVECs [4]: promoted the proliferation | CF proliferation, result in words [5]: inactive | proliferation of murine CFs (murine CFs): inhibited the proliferation | top effect (% of maximum control) [6]: 103% | proliferation of human aortic SMCs (human aortic SMCs): inhibited the proliferation
